From patent US11279744B2, “Neuropeptide Y fragment capable of releasing hematopoietic stem cells into blood and treating osteoporosis” (Kyungpook National University Industry-Academic Cooperation …, priority 2017, dated 2022)
“Also recorded” adds a separate entry of the source. Non-standard residues stand in square brackets, D forms with d. No end group written: not given here.

Experiments:
[1] = system: hematopoietic stem cell adhesion factors (Sdf-1a, KitI, Angpt1) present in osteoblasts; assay: expression of hematopoietic stem cell adhesion factors in osteoblasts, real-time quantitative PCR; assay type: cell-based, mouse; conditions: for expression levels of Sdf-1a, KitI, and Angpt1 in osteoblasts: 10 nM peptide for 3 days, compared to osteoblasts (control) not treated with peptides, fold change
Protocol: All mice used in the experiment were 6 to 8 weeks old mice, C57BL/6 mice, and purchased from Jackson Laboratory (Bar Harbor, Me., USA). NPY (21-28) (SEQ ID NO: 1), NPY (24-31) (SEQ ID NO: 2), NPY (29-36) (SEQ ID NO: 3), NPY D25 (21-28) (SEQ ID NO: 4), NPY D26 (21-28) (SEQ ID NO: 5), NPY D25, 26 (21-28) (SEQ ID NO: 6), NPY (21-36) (Osteopep2) (SEQ ID NO: 7) were prepared from Anygen. Full length NPY (SEQ ID NO: 8) was purchased from Bachem. 10 nM of each peptide was diluted in each medium and injected for in vitro experiments. The NPY D^25(21-28) refers to a peptide in which arginine, the fifth amino acid of the amino acid sequence of NPY (21-28), is modified to D-type, the NPY D^26(21-28) refers to a peptide in which the sixth amino acid histidine is modified to D-form, and the D^25,26(21-28) refers to a peptide in which both the fifth and sixth amino acids are modified to D-form, respectively.
Four to six weeks old C57BL/6 mice were sacrificed after anesthesia, and then tibias and femurs were dissected. Bone marrow was harvested from tibias and femurs and single cell suspensions were obtained using a 40 μm cell strainer (Becton-Dickinson LAβware, Franklin Lakes, N.J.). Approximately […] were dispensed into 75-cm 2 flasks containing mesenchymal stem cells Stimulatory Supplements with antibiotics (Stem Cell Technologies, Inc) and MesenCult™ MSCBasal medium. The cells were incubated for 1 week and further incubated for 3 weeks with StemXVivo Osteogenic/Adipogenic Base Media (R & D systems) supplemented with StemXVivo Osteogenic supplement (20×) and penicillin-streptomycin (100×) for differentiation into osteoblasts.
(§1) Real-time quantitative PCR was used to measure expression levels of hematopoietic stem cell adhesion factors (Sdf-1a, KitI, Angpt1) present in osteoblasts. Total RNA was extracted from cell eluate and bone marrow cells using the RNeasy Plus mini kit (Qiagen, Korea, Ltd), and cDNAs were synthesized from 5 μg total RNA using a kit in Clontech (Mountain View, Calif.). In addition, using a Corbett research RG-6000 real-time PCR instrument, Real-time quantitative PCR was performed at 95° C. for 10 minutes; at 95° C., for 10 seconds; at 58° C., for 15 seconds; at 72° C. for 20 seconds as one cycle, and 40 cycles were repeated.
First, bone marrow was harvested from 4 to 6 weeks old C57BL6 mice, and mesenchymal stem cells (BM-MSCs) in bone marrow were collected, and then cultured for 3 weeks in osteoblast differentiation induction medium for the differentiation into osteoblasts. After 28 days, each peptide was treated with 10 nM for 3 days, and bone cells were collected and examined for expression levels of three adhesion factors by real-time quantitative PCR. Osteopep2 and its parent NPY were used as positive controls.

[2] = system: adhesion factors of hematopoietic stem cell in bone marrow (Sdf-1a, KitI, Angpt1); assay: expression of adhesion factors in bone marrow of osteoporosis animal models, real-time quantitative PCR; assay type: in vivo, mouse; conditions: OVX mice, 50 μg/kg i.p. twice a day for 4 weeks; bone marrow 1 hour after last administration
Protocol: To make an osteoporosis model, 10-18 12 weeks old female mice per group underwent ovarian ablation. A week later, 50 μg/kg of NPY(21-28), NPY D^25(21-28), NPY D^26(21-28), NPY D^25,26(21-28), Osteopep2, NPY and 100 μl of PBS(Gibco) were intraperitoneally administered twice a day for 4 weeks at 12 hour intervals. Alendronate (Sigma), used as a competitive drug, was intraperitoneally administered once a week for 4 weeks at a dose of 50 μg/kg. As a control group, only Sham model of osteoporosis was performed by subcutaneous dissection of female mouse. Mice were placed in experimental groups using the Block randomization method, and all mouse experiments were approved through the Kyungpook National University Institutional Animal Care and Use Committee.
as §1
In order to investigate whether the NPY (21-28) of the present invention affects the blood release of myelopoiesis stem cells in the animal models of osteoporosis, the following experiments were carried out according to the methods of Examples 1-1, 1-3, 1-4, and 1-5. In order to make animal models of osteoporosis, 12 weeks old C57BL/6 female mice were subjected to ovarian ablation for 10 to 18 animals in each group. […] Weight change was measured weekly, and bone marrow and blood were collected one hour after the last dose at 4 weeks, and the release of myelopoiesis progenitor and stem cells into blood was analyzed. […]

Q: For “NPY D^25,26(21-28): peptide in which both the fifth and sixth amino acids of NPY (21-28) are modified to D-form (YSAL[dR][dH]YI)”, which “expression levels of Sdf-1a, KitI, and Angpt1 in osteoblasts” value (shortened to “expression levels of Sdf-1a, KitI”) [1] is on record?
A: decreased

Q: What about the “amount of Angpt1 expression in osteoblasts, compared with NPY (21-28)” value ([1]; 10 nM peptide, osteoblasts) of the same substance?
A: further reduce the amount of Angpt1 expression than NPY (21-28)

Q: What about the “expression levels of major adhesion factors Sdf-1a, KitI, and Angpt1 in bone marrow” value (“expression levels … in bone marrow” for short) [2] of the same substance?
A: decreased; also recorded: generally superior to those of NPY

Q: “NPY D^25(21-28): peptide in which arginine, the fifth amino acid of the amino acid sequence of NPY (21-28), is modified to D-type (YSAL[dR]HYI)” was tested. Which “expression levels of Sdf-1a, KitI” value [1] did it give?
A: decreased

Q: What about the “expression levels … in bone marrow” value [2] of the same substance?
A: decreased; also recorded: generally superior to those of NPY

Q: How did the “expression levels of Sdf-1a, KitI” value [1] turn out when YSALRHYI [NPY (21-28)] was run?
A: decreased

Q: And the “expression levels … in bone marrow” value [2]?
A: decreased
